Measurements reported in patent publication US20240400555A1 (Initial Therapeutics, Inc., priority 2023, published 2024).
Like-named read-outs stand apart in the source and are kept apart here.

System: MV-4-11 cells
Experiment: Cell Viability Assay in MV-4-11 Cells
Type: cell-based
Details: Homo sapiens, MV4-11, 72 h
Method: MV-4-11 cells (ATCC) were seeded into sterile 96-well flat clear bottom white polystyrene TC-treated microplates (Corning) at 7,000 cells/well in 150 μL complete growth medium (Iscove's Modified Dulbecco's Medium (IMDM) (Gibco), 10% Heat Inactivated Fetal Bovine Serum (HyClone), 1% Penicillin-Streptomycin-L-Glutamine (HyClone), 1% GlutaMAX (Gibco)). […] After 72 h incubation, plates were removed from incubators and allowed to equilibrate to room temperature (˜10 min) before adding 50 μL per well Cell-Titer Glo reagent (Promega) using a WellJet (Integra Biosciences) dispenser. Plates were then incubated at room temperature for 2-20 min prior to measurement of luminescence on an Envision (Perkin Elmer) plate reader. Data were normalized to DMSO (100% viability) and analyzed using a non-linear four-parameter curve fit.

[1] = MV-4-11 cells, 72 h, Cell-Titer Glo, read-out: IC50

Which IC50 [1] does the source give for Cc1nnc(-c2ccc(C(=O)N(c3nccc4cc(-c5nccs5)cc(C)c34)[C@@H]3CCCNC3)c(F)c2)s1 (racemic) [Example 733, 2-fluoro-4-(5-methyl-1,3,4-thiadiazol-2-yl)-N-(8-methyl-6-thiazol-2-yl-1-isoquinolyl)-N-[rac-(3R)-3-piperidyl] benzamide] here?
Its IC50 is 46 nM.

Which IC50 [1] does the source give for Cn1cc(-c2ccc(C(=O)N(c3nccc4cccc(C=CCO)c34)[C@@H]3CCCNC3)cc2)nn1 (stereo in doubt) [Example 338, (R,Z)—N-(8-(3-hydroxyprop-1-en-1-yl)isoquinolin-1-yl)-4-(1-methyl-1H-1,2,3-triazol-4-yl)-N-(piperidin-3-yl)benzamide] here?
Its IC50 is > 10000 nM.

O=C(c1ccc(-c2cnn3cccnc23)cc1)N(c1nccc2ccccc12)[C@@H]1CCCNC1 [Example 302, (R)—N-(isoquinolin-1-yl)-N-(piperidin-3-yl)-4-(pyrazolo[1,5-a]pyrimidin-3-yl)benzamide] was tested. Which IC50 [1] did it give?
The IC50 was 480 nM.

With Cn1ccc2ccnc(N(C(=O)c3ccc(-c4cnn5cccnc45)cc3)[C@@H]3CCCNC3)c21 [Example 303, (R)—N-(1-methyl-1H-pyrrolo[2,3-c]pyridin-7-yl)-N-(piperidin-3-yl)-4-(pyrazolo[1,5-a]pyrimidin-3-yl)benzamide] as the compound, how does the IC50 [1] read?
Its IC50 is 450 nM.

How did the IC50 [1] turn out when CN(C)C/C=C/C(=O)Nc1cccc(C2CCN(C(=O)N(c3nccc4ccn(C)c34)[C@@H]3CCCNC3)CC2)c1 [Example 304, (R,E)-4-(3-(4-(dimethylamino)but-2-enamido)phenyl)-N-(1-methyl-1H-pyrrolo[2,3-c]pyridin-7-yl)-N-(piperidin-3-yl)piperidine-1-carboxamide] was run?
Its IC50 is 37 nM.

How did the IC50 [1] turn out when O=C(c1ccc(-n2nnc3cccnc32)cc1)N(c1ncccc1Cl)[C@@H]1CCCNC1 [Example 305, (R)-4-(3H-[1,2,3]triazolo[4,5-b]pyridin-3-yl)-N-(3-chloropyridin-2-yl)-N-(piperidin-3-yl)benzamide] was run?
Its IC50 is 1600 nM.

Which IC50 [1] does the source give for Cc1cc(-n2nnc3cccnc32)ccc1C(=O)N(c1nccc2cccc(C)c12)[C@@H]1CCCNC1 [Example 306, (R)-4-(3H-[1,2,3]triazolo[4,5-b]pyridin-3-yl)-2-methyl-N-(8-methylisoquinolin-1-yl)-N-(piperidin-3-yl)benzamide] here?
Its IC50 is 58 nM.

For CCc1cc(-n2nnc3cccnc32)ccc1C(=O)N(c1nccc2cccc(C)c12)[C@@H]1CCCNC1 [Example 307, (R)-4-(3H-[1,2,3]triazolo[4,5-b]pyridin-3-yl)-2-ethyl-N-(8-methylisoquinolin-1-yl)-N-(piperidin-3-yl)benzamide], which IC50 [1] is on record?
The IC50 was 100 nM.

For COc1cc(-n2nnc3cccnc32)ccc1C(=O)N(c1nccc2cccc(C)c12)[C@@H]1CCCNC1 [Example 308, (R)-4-(3H-[1,2,3]triazolo[4,5-b]pyridin-3-yl)-2-methoxy-N-(8-methylisoquinolin-1-yl)-N-(piperidin-3-yl)benzamide], which IC50 [1] is on record?
Its IC50 is 25 nM.

With Cc1cccc2ccnc(N(C(=O)c3ccc(Nc4ncccn4)cc3)[C@@H]3CCCNC3)c12 [Example 309, (R)—N-(8-methylisoquinolin-1-yl)-N-(piperidin-3-yl)-4-(pyrimidin-2-ylamino)benzamide] as the compound, how does the IC50 [1] read?
The IC50 was 280 nM.

Which IC50 [1] does the source give for Cc1cccc2ccnc(N(C(=O)c3ccc(-n4nnc5cccnc54)cc3Cl)[C@@H]3CCCNC3)c12 [Example 310, (R)-4-(3H-[1,2,3]triazolo[4,5-b]pyridin-3-yl)-2-chloro-N-(8-methylisoquinolin-1-yl)-N-(piperidin-3-yl) benzamide] here?
Its IC50 is 28 nM.

Which IC50 [1] does the source give for Cc1cccc2ccnc(N(C(=O)c3ccc(N4CCOCC4)cc3F)[C@@H]3CCCNC3)c12 [Example 311, (R)-2-fluoro-N-(8-methylisoquinolin-1-yl)-4-morpholino-N-(piperidin-3-yl)benzamide] here?
Its IC50 is 23 nM.

For Cc1cccc2ccnc(N(C(=O)c3ccc(-n4nnc5cccnc54)cc3C(F)(F)F)[C@@H]3CCCNC3)c12 [Example 312, (R)-4-(3H-[1,2,3]triazolo[4,5-b]pyridin-3-yl)-N-(8-methylisoquinolin-1-yl)-N-(piperidin-3-yl)-2-(trifluoromethyl)benzamide], which IC50 [1] is on record?
Its IC50 is 2600 nM.

With O=C(c1ccc(-n2nnc3cccnc32)cc1F)N(c1nccc2ccccc12)[C@@H]1CCCNC1 [Example 313, (R)-4-(3H-[1,2,3]triazolo[4,5-b]pyridin-3-yl)-2-fluoro-N-(isoquinolin-1-yl)-N-(piperidin-3-yl)benzamide] as the compound, how does the IC50 [1] read?
Its IC50 is 230 nM.

For Cc1cccc2ccnc(N(C(=O)c3ccc(-c4cncs4)cc3F)[C@@H]3CCCNC3)c12 [Example 314, (R)-2-fluoro-N-(8-methylisoquinolin-1-yl)-N-(piperidin-3-yl)-4-(thiazol-5-yl) benzamide], which IC50 [1] is on record?
Its IC50 is 50 nM.

How did the IC50 turn out when Cc1csc(-c2ccc(C(=O)N(c3nccc4cccc(C)c34)[C@@H]3CCCNC3)c(F)c2)n1 [Example 315, (R)-2-fluoro-N-(8-methylisoquinolin-1-yl)-4-(4-methylthiazol-2-yl)-N-(piperidin-3-yl)benzamide] was run?
The IC50 was 240 nM.

With Cc1cc(-c2ccc(C(=O)N(c3nccc4cccc(C)c34)[C@@H]3CCCNC3)c(F)c2)on1 [Example 316, (R)-2-fluoro-N-(8-methylisoquinolin-1-yl)-4-(3-methylisoxazol-5-yl)-N-(piperidin-3-yl) benzamide] as the compound, how does the IC50 [1] read?
Its IC50 is 82 nM.

How did the IC50 [1] turn out when Cn1ccc2ccnc(N(C(=O)c3ccc(-n4nnc5cccnc54)cc3F)[C@@H]3CCCNC3)c21 [Example 317, (R)-4-(3H-[1,2,3]triazolo[4,5-b]pyridin-3-yl)-2-fluoro-N-(1-methyl-1H-pyrrolo[2,3-c]pyridin-7-yl)-N-(piperidin-3-yl)benzamide] was run?
Its IC50 is 79 nM.

How did the IC50 [1] turn out when Cc1cccc2ccnc(N(C(=O)c3ccc(-c4cncc(C(N)=O)n4)cc3F)[C@@H]3CCCNC3)c12 [Example 318, (R)-6-(3-fluoro-4-((8-methylisoquinolin-1-yl)(piperidin-3-yl)carbamoyl)phenyl) pyrazine-2-carboxamide] was run?
Its IC50 is 220 nM.

Cc1ccnc(Nc2ccc(C(=O)N(c3nccc4cccc(C)c34)[C@@H]3CCCNC3)c(F)c2)n1 [Example 319, (R)-2-fluoro-N-(8-methylisoquinolin-1-yl)-4-((4-methylpyrimidin-2-yl)amino)-N-(piperidin-3-yl)benzamide] was tested. Which IC50 [1] did it give?
Its IC50 is 66 nM.

With NC(=O)/C=C/c1cccc2ccnc(N(C(=O)c3ccc(-n4nnc5cccnc54)cc3F)[C@@H]3CCCNC3)c12 [Example 320, N-[8-[(E)-3-amino-3-oxo-prop-1-enyl]-1-isoquinolyl]-2-fluoro-N-[(3R)-3-piperidyl]-4-(triazolo[4.5-b]pyridin-3-yl)benzamide] as the compound, how does the IC50 read?
Its IC50 is 5.6 nM.

For Cc1cccc2ccnc(N(C(=O)c3ccc(Nc4nccc(CO)n4)cc3F)[C@@H]3CCCNC3)c12 [Example 321, (R)-2-fluoro-4-((4-(hydroxymethyl)pyrimidin-2-yl)amino)-N-(8-methylisoquinolin-1-yl)-N-(piperidin-3-yl)benzamide], which IC50 [1] is on record?
Its IC50 is 780 nM.

Which IC50 [1] does the source give for Cc1cccc2ccnc(N(C(=O)c3ccc(Nc4ncc(CO)cn4)cc3F)[C@@H]3CCCNC3)c12 [Example 322, (R)-2-fluoro-4-((5-(hydroxymethyl)pyrimidin-2-yl)amino)-N-(8-methylisoquinolin-1-yl)-N-(piperidin-3-yl)benzamide] here?
Its IC50 is 180 nM.

With Cc1cc(-c2ccc(C(=O)N(c3nccc4cccc(C)c34)[C@@H]3CCCNC3)c(F)c2)[nH]n1 [Example 323, (R)-2-fluoro-4-(3-methyl-1H-pyrazol-5-yl)-N-(8-methylisoquinolin-1-yl)-N-(piperidin-3-yl) benzamide] as the compound, how does the IC50 [1] read?
The IC50 was 440 nM.

Which IC50 does the source give for Cc1n[nH]c(-c2ccc(C(=O)N(c3nccc4cccc(C)c34)[C@@H]3CCCNC3)c(F)c2)n1 [Example 324, (R)-2-fluoro-4-(3-methyl-1H-1,2,4-triazol-5-yl)-N-(8-methylisoquinolin-1-yl)-N-(piperidin-3-yl) benzamide] here?
Its IC50 is 1500 nM.

Which IC50 [1] does the source give for O=C(c1ccc(-n2nnc3cccnc32)cc1F)N(c1nccc2cccnc12)[C@@H]1CCCNC1 [Example 325, (R)-4-(3H-[1,2,3]triazolo[4,5-b]pyridin-3-yl)-2-fluoro-N-(1,7-naphthyridin-8-yl)-N-(piperidin-3-yl)benzamide] here?
The IC50 was 1500 nM.

For Cc1cccc2ccnc(N(C(=O)c3ccc(-c4cnn(C)c4)c(-c4cnn(C)c4)c3)[C@@H]3CCCNC3)c12 [Example 326, (R)-3,4-bis(1-methyl-1H-pyrazol-4-yl)-N-(8-methylisoquinolin-1-yl)-N-(piperidin-3-yl) benzamide], which IC50 [1] is on record?
Its IC50 is 67 nM.

Cc1cccc2ccnc(N(C(=O)c3ccc(C#N)c(-c4ccc(-c5ccccc5)cc4)c3)[C@@H]3CCCNC3)c12 [Example 327, 4-cyano-N-(8-methyl-1-isoquinolyl)-3-(4-phenylphenyl)-N-[(3R)-3-piperidyl]benzamide] was tested. Which IC50 did it give?
Its IC50 is 2700 nM.

How did the IC50 [1] turn out when Cc1cccc2ccnc(N(C(=O)c3ccc(C#N)c(-c4ccc(-c5cccnc5)cc4)c3)[C@@H]3CCCNC3)c12 [Example 328, 4-cyano-N-(8-methyl-1-isoquinolyl)-N-[(3R)-3-piperidyl]-3-[4-(3-pyridyl)phenyl]benzamide] was run?
Its IC50 is 210 nM.

Cc1cccc2ccnc(N(C(=O)c3ccc(C#N)c(-c4cccc(-c5cn[nH]c5)c4)c3)[C@@H]3CCCNC3)c12 [Example 329, (R)-6-cyano-N-(8-methylisoquinolin-1-yl)-N-(piperidin-3-yl)-3′-(1H-pyrazol-4-yl)-[1,1′-biphenyl]-3-carboxamide] was tested. Which IC50 [1] did it give?
Its IC50 is 72 nM.

For Cc1cccc2ccnc(N(C(=O)c3ccc(C#N)c(-c4ccc(-c5ccncc5)cc4)c3)[C@@H]3CCCNC3)c12 [Example 330, 4-cyano-N-(8-methyl-1-isoquinolyl)-N-[(3R)-3-piperidyl]-3-[4-(4-pyridyl)phenyl]benzamide], which IC50 [1] is on record?
Its IC50 is 90 nM.
